Like-named read-outs stand apart in the source and are kept apart here.
Tests used:
[1] = Pharmacokinetics and metabolism after iv and po administration; format: in vivo; conditions: for half-life: mean ± SD, read-out: t½ (converted); for MRT last: read-out: MRT0-last; for AUC(0-t): up to 7 h
Protocol: The plasma concentration-time profiles of the parent compounds and metabolites after administration iv and po to male C57/BL6 mice are presented in Figure 2, Figure 3 and Figure 4. Artemiside was quantifiable up to 24 h in all mice dosed iv and up to 7 h po (lower limit of quantitation LLOQ = 1.6 ng/mL or 0.004 μM) (Figure 2). […] For both artemiside and artemisox, the metabolite artemisone was quantifiable up to 3 h in both the po and iv groups (Figure 2 and Figure 3). Thereby it is confirmed that artemiside is rapidly converted via artemisox into artemisone. Artemisone itself was quantifiable up to three hours post dose (Figure 4). The mean circulating concentrations for the compounds and their metabolites are presented in Table S3a–f in the Supplementary Material 1. The metabolite M1 was also detected upon administration of artemiside, artemisox, and artemisone, but it was not quantified here; chromatograms indicating the presence of M1 are illustrated in Figure S3a–c in the Supplementary Material 1. In addition, the plasma concentration-time curves for artemiside and its metabolites artemisone and M1 following iv and po dosing in the same murine model are presented and discussed in detail elsewhere (cf. Figure 4 in reference).
All work was conducted with prior approval of the animal ethics committee of the University of Cape Town in accordance with the South African National Standards for the Care and Use of Animals for Scientific Purposes and guidelines from the South African Department of Health. The requirements and methods for the pharmacokinetics in vivo involving po and iv drug administration, sample extraction, analyses of samples by LC-MS/MS, and data analyses are described elsewhere. For the animal experiments and formulations, the compounds were dissolved in a 10:60:30 mixture of N,N-dimethylacetamide-polypropylene glycol-polyethylene glycol for intravenous dosing (iv) at 5 mg/kg. For the oral dose (po), compounds were individually dosed as a suspension in 0.5% (w/v) hydroxypropylmethylcellulose in water with 0.2% Tween80 at 50 mg/kg to male C57/BL6 mice (n = 3 for each group). For PK sampling, blood samples were collected at predetermined times (0.08, 0.25, 0.5, 1, 3, 5, 7, and 24 h) for both po and iv dosing via tail bleeding into heparinized tubes, centrifuged, and the plasma samples were stored at −80 °C until extraction. For preparation of samples, the frozen plasma samples were thawed and 15 μL was extracted by liquid–liquid extraction using a universal buffer (pH8) containing 10 ng/mL of the internal standard and ethyl acetate, and the extract was vortexed and centrifuged. Calibration standards and quality controls were extracted following the same procedure. Supernatants were dried down, reconstituted, and injected onto the column for LC-MS/MS analysis using an AB SCIEX 5500 QTRAP instrument coupled to an Agilent 1260 HPLC detection system as previously described.

[2] = tested on: late-stage (LG) Pf NF54 gametocytes; set-up: method as in PMID 29866868; conditions: late-stage gametocytes >90% stages IV-V; dose responses obtained at 72 h; ± SEM; cited from earlier work
[3] = tested on: Chinese hamster ovary (CHO) cells; set-up: method as in PMID 29866868, PMID 31998692; conditions: other cell lines including CHO cells; read-out: EC50 cytotoxicity; cited from earlier work
[4] = male, C57/BL6, mouse, plasma, iv 5 mg/kg, parent drug
[5] = male, C57/BL6, mouse, plasma, po 50 mg/kg, parent drug

SMILES: C[C@H]1[C@H](N2CCS(=O)(=O)CC2)O[C@@H]2O[C@@]3(C)CC[C@H]4[C@H](C)CC[C@@H]1[C@@]24OO3 [Artemisone 7, Artemisone]
- concentration at 3 h ([1]; male, C57/BL6, mouse, plasma, iv, 5 mg/kg, 3 h after iv 5 mg/kg artemisone 7, read-out: Mean iv circulating concentration): 28 nM
- concentration at 3 h ([1]; male, C57/BL6, mouse, plasma, iv, 5 mg/kg, 3 h after iv 5 mg/kg artemisox 6, read-out: Mean iv circulating concentration): 7 nM
- concentration at 5 h ([1]; male, C57/BL6, mouse, plasma, iv, 5 mg/kg, 5 h after iv 5 mg/kg artemiside 5, read-out: Mean iv circulating concentration): 5 nM
- half-life ([1]; male, C57/BL6, mouse, plasma, iv, 5 mg/kg, iv 5 mg/kg, parent drug): 24 min
- concentration at 0.08 h ([1]; male, C57/BL6, mouse, plasma, po, 50 mg/kg, 0.08 h after po 50 mg/kg artemiside 5, read-out: Mean po circulating concentration): 1000 nM
- concentration at 0.08 h ([1]; male, C57/BL6, mouse, plasma, po, 50 mg/kg, 0.08 h after po 50 mg/kg artemisone 7, read-out: Mean po circulating concentration): 1630 nM
- concentration at 0.08 h ([1]; male, C57/BL6, mouse, plasma, po, 50 mg/kg, 0.08 h after po 50 mg/kg artemisox 6, read-out: Mean po circulating concentration): 3640 nM
- concentration at 0.25 h ([1]; male, C57/BL6, mouse, plasma, po, 50 mg/kg, 0.25 h after po 50 mg/kg artemiside 5, read-out: Mean po circulating concentration): 1390 nM
- concentration at 0.25 h ([1]; male, C57/BL6, mouse, plasma, po, 50 mg/kg, 0.25 h after po 50 mg/kg artemisone 7, read-out: Mean po circulating concentration): 1520 nM
- concentration at 0.25 h ([1]; male, C57/BL6, mouse, plasma, po, 50 mg/kg, 0.25 h after po 50 mg/kg artemisox 6, read-out: Mean po circulating concentration): 3530 nM
- concentration at 0.5 h ([1]; male, C57/BL6, mouse, plasma, po, 50 mg/kg, 0.5 h after po 50 mg/kg artemiside 5, read-out: Mean po circulating concentration): 1790 nM
- concentration at 0.5 h ([1]; male, C57/BL6, mouse, plasma, po, 50 mg/kg, 0.5 h after po 50 mg/kg artemisone 7, read-out: Mean po circulating concentration): 1140 nM
- concentration at 0.5 h ([1]; male, C57/BL6, mouse, plasma, po, 50 mg/kg, 0.5 h after po 50 mg/kg artemisox 6, read-out: Mean po circulating concentration): 3690 nM
- concentration at 1 h ([1]; male, C57/BL6, mouse, plasma, po, 50 mg/kg, 1 h after po 50 mg/kg artemiside 5, read-out: Mean po circulating concentration): 1670 nM
- concentration at 1 h ([1]; male, C57/BL6, mouse, plasma, po, 50 mg/kg, 1 h after po 50 mg/kg artemisone 7, read-out: Mean po circulating concentration): 357 nM
- concentration at 1 h ([1]; male, C57/BL6, mouse, plasma, po, 50 mg/kg, 1 h after po 50 mg/kg artemisox 6, read-out: Mean po circulating concentration): 3200 nM
- concentration at 3 h ([1]; male, C57/BL6, mouse, plasma, po, 50 mg/kg, 3 h after po 50 mg/kg artemiside 5, read-out: Mean po circulating concentration): 179 nM
- concentration at 3 h ([1]; male, C57/BL6, mouse, plasma, po, 50 mg/kg, 3 h after po 50 mg/kg artemisone 7, read-out: Mean po circulating concentration): 12 nM
- concentration at 3 h ([1]; male, C57/BL6, mouse, plasma, po, 50 mg/kg, 3 h after po 50 mg/kg artemisox 6, read-out: Mean po circulating concentration): 48 nM
- concentration at 5 h ([1]; male, C57/BL6, mouse, plasma, po, 50 mg/kg, 5 h after po 50 mg/kg artemisox 6, read-out: Mean po circulating concentration): 7 nM
- half-life ([1]; male, C57/BL6, mouse, plasma, po, 50 mg/kg, po 50 mg/kg, parent drug): 23.4 ± 3 min
- clearance ([1]; male, C57/BL6, mouse, plasma, iv 5 mg/kg): 88.3 mL/min/kg
- AUC(0-inf) [1, 4]: 2.5 ± 0.6 µM·h
- MRT last ([1]; male, C57/BL6, mouse, plasma, iv 5 mg/kg, parent drug, 0-last up to 7 h): 33.6 ± 4.2 min
- AUC(0-t) [1, 4]: 2.4 ± 0.6 µM·h
- Vd ([1]; male, C57/BL6, mouse, plasma, iv 5 mg/kg, read-out: Vss): 3 ± 0.5 L/kg
- bioavailability ([1]; male, C57/BL6, mouse, plasma, po 50 mg/kg vs iv 5 mg/kg, read-out: F (bioavailability)): 4.9 ± 1.7%
- Cmax [1, 5]: 1700 ± 400 nM
- MRT last [1, 5]: 32.4 ± 7.8 min
- AUC(0-t) [1, 5]: 1.1 ± 0.1 µM·h
- MAT (mean absorption time = MRTpo–MRTiv) ([1]; po 50 mg/kg): 0 h
- IC50 [2]: 42.4 ± 3.3 nM
- EC50 [3]: > 241000 nM

Source: publication PMC8704606, “The Artemiside-Artemisox-Artemisone-M1 Tetrad: Efficacies against Blood Stage P. falciparum Parasites, DMPK Properties, and the Case for Artemiside” (Pharmaceutics, 2021)
